Laboratory results from US10633419B2, “Immunomodulators” (BRISTOL-MYERS SQUIBB COMPANY, priority 2014, dated 2020).
Starred links: 1 amine or outer side, 2 acyl side, 3 side chain; linkers in the order of their positions; H or OH if unused. Positions of bridges follow the written chain, without caps; N, C: chain ends. Non-standard residues stand in square brackets, D forms with d. Residues, ends and D or L forms follow the SMILES beside them. Groups on a side chain read outwards from the residue. *: point of attachment. X6 = O=C(O)CCCCCCCCCCCCCCCCC(=O)N[C@@H](CCC(=O)NCCCOCCOCCOCCCN*)C(=O)O; Trp(1-CH2COOH) = N[C@@H](Cc1cn(CC(=O)O)c2ccccc12)C(=O)O; C18 diacid = O=C(O)CCCCCCCCCCCCCCCCC(=O)*; NH(CH2)16COOH = O=C(O)CCCCCCCCCCCCCCCCN*; γGlu = O=C(O)[C@H](CCC(=O)[*:2])N[*:1]; Hyp = O=C(O)[C@@H]1C[C@@H](O)CN1; Myristoyl = CCCCCCCCCCCCCC(=O)*; NMeNle = CCCC[C@H](NC)C(=O)O; Pip = O=C(O)[C@@H]1CCCCN1; NMeA = CN[C@@H](C)C(=O)O; Aun = NCCCCCCCCCCC(=O)O; Dab = NCC[C@H](N)C(=O)O; Dap = NC[C@H](N)C(=O)O

Target: T1, PD-L1 (Homo sapiens, UniProt Q9NZQ7)
T1 construct: hPDL1(19-239)-TVMV-His; made in house; host or cells: HEK293T
T1 sequence (Q9NZQ7 with tags, fused parts or gaps): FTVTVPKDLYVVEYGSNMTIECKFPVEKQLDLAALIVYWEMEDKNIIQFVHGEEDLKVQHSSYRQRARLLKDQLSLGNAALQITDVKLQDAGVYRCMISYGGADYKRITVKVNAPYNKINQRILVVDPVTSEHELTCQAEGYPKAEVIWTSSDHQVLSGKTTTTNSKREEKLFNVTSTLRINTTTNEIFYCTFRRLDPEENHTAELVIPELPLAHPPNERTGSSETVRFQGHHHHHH
Assay: PD-1/PD-L1 Homogenous Time-Resolved Fluorescence (HTRF) binding assay (PD-1-Ig/PD-L1-His)
Conditions: inhibition of PD-1-Ig binding to PD-L1-TVMV-His; value given as range class; read-out: HTRF IC50
How it was run: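 HTRF competition in dPBS with 0.1% BSA and 0.05% Tween-20: 20 nM PD-1-Ig added after 15 min compound pre-incubation with 10 nM PD-L1-His, then another 15 min. Signal (665/620 nm) after 30 min with APC anti-His (20 nM) and Eu anti-Ig (1 nM).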

Work on `CCCC[C@H]1C(=O)N(C)[C@@H](CCCC)C(=O)N[C@@H](CC(C)C)C(=O)N[C@H](C(=O)NCC(=O)N[C@@H](CC(=O)O)C(=O)NCC(=O)NCCCCCCCCCCC(=O)O)CSCC(=O)N[C@@H](Cc2ccc(O)cc2)C(=O)N(C)[C@@H](C)C(=O)N[C@@H](CC(N)=O)C(=O)N2CCC[C@H]2C(=O)N[C@@H](CN)C(=O)N[C@@H](CC(C)C)C(=O)N2C[C@H](O)C[C@H]2C(=O)N[C@@H](Cc2c[nH]c3ccccc23)C(=O)N[C@@H](CCN)C(=O)N[C@@H](Cc2cn(CC(=O)O)c3ccccc23)C(=O)N1C` [Example 11099] ({CH2CO}-Y[NMeA]NP[Dap]L[Hyp]W[Dab][Trp(1-CH2COOH)][NMeNle][NMeNle]LCGDG[Aun]-OH; thioether N-14) yielded an IC50 of 0.3 to 9.9 nM.

`CCCC[C@H]1C(=O)N(C)[C@@H](CCCC)C(=O)N[C@@H](CC(C)C)C(=O)N[C@H](C(=O)NCC(=O)N[C@H](CC(=O)O)C(=O)NCCCCCCCCCCCCCCCCC(=O)O)CSCC(=O)N[C@@H](Cc2ccc(O)cc2)C(=O)N(C)[C@@H](C)C(=O)N[C@@H](CC(N)=O)C(=O)N2CCC[C@H]2C(=O)N[C@@H](CN)C(=O)N[C@@H](CC(C)C)C(=O)N2C[C@H](O)C[C@H]2C(=O)N[C@@H](Cc2c[nH]c3ccccc23)C(=O)N[C@@H](CCN)C(=O)N[C@@H](Cc2cn(CC(=O)O)c3ccccc23)C(=O)N1C` [Example 11190] ({CH2CO}-Y[NMeA]NP[Dap]L[Hyp]W[Dab][Trp(1-CH2COOH)][NMeNle][NMeNle]LCG[dD]-{NH(CH2)16COOH}; thioether N-14) showed an IC50 of 10 to 99 nM.

`CCCC[C@H]1C(=O)N(C)[C@@H](CCCC)C(=O)N[C@@H](CC(C)C)C(=O)N[C@H](C(=O)NCC(=O)N[C@@H](CNC(=O)CC[C@H](NC(=O)CCCCCCCCCCCCCCCCC(=O)O)C(=O)O)C(=O)O)CSCC(=O)N[C@@H](Cc2ccc(O)cc2)C(=O)N2CCCC[C@H]2C(=O)N[C@@H](CC(N)=O)C(=O)N2CCC[C@H]2C(=O)N[C@@H](CN)C(=O)N[C@@H](CC(C)C)C(=O)N2C[C@H](O)C[C@H]2C(=O)N[C@@H](Cc2c[nH]c3ccccc23)C(=O)N[C@@H](CCN)C(=O)N[C@@H](Cc2cn(CC(=O)O)c3ccccc23)C(=O)N1C` [Example 13152] ({CH2CO}-Y[Pip]NP[Dap]L[Hyp]W[Dab][Trp(1-CH2COOH)][NMeNle][NMeNle]LCG[Dap]([γGlu-C18 diacid])-OH; thioether N-14) showed an IC50 of 0.3 to 9.9 nM.

`CCCC[C@H]1C(=O)N(C)[C@@H](CCCC)C(=O)N[C@@H](CC(C)C)C(=O)N[C@H](C(=O)NCC(=O)N[C@@H](CC(=O)O)C(=O)NCCCOCCOCCOCCCNC(=O)CC[C@H](NC(=O)CCCCCCCCCCCCCCCCC(=O)O)C(=O)O)CSCC(=O)N[C@@H](Cc2ccc(O)cc2)C(=O)N(C)[C@@H](C)C(=O)N[C@@H](CC(N)=O)C(=O)N2CCC[C@H]2C(=O)N[C@@H](CN)C(=O)N[C@@H](CC(C)C)C(=O)N2C[C@H](O)C[C@H]2C(=O)N[C@@H](Cc2c[nH]c3ccccc23)C(=O)N[C@@H](CCN)C(=O)N[C@@H](Cc2cn(CC(=O)O)c3ccccc23)C(=O)N1C` [Example 11224] ({CH2CO}-Y[NMeA]NP[Dap]L[Hyp]W[Dab][Trp(1-CH2COOH)][NMeNle][NMeNle]LCGD-X6; thioether N-14) showed an IC50 of 0.3 to 9.9 nM.

Molecule `CCCC[C@H]1C(=O)N(C)[C@@H](CCCC)C(=O)N[C@@H](CC(C)C)C(=O)N[C@H](C(=O)NCC(=O)N[C@@H](Cc2cn(CCCNC(=O)CCCCCCCCCCCCCCCCC(=O)O)nn2)C(=O)O)CSCC(=O)N[C@@H](Cc2ccc(O)cc2)C(=O)N(C)[C@@H](C)C(=O)N[C@@H](CC(N)=O)C(=O)N2CCC[C@H]2C(=O)N[C@@H](CN)C(=O)N[C@@H](CC(C)C)C(=O)N2C[C@H](O)C[C@H]2C(=O)N[C@@H](Cc2c[nH]c3ccccc23)C(=O)N[C@@H](CCN)C(=O)N[C@@H](Cc2cn(CC(=O)O)c3ccccc23)C(=O)N1C` [Example 14126] has an IC50 of 0.3 to 9.9 nM.

For `CCCC[C@H]1C(=O)N2CCC[C@@H]2C(=O)N[C@@H](CC(=O)O)C(=O)N[C@@H](C(C)C)C(=O)N(C)[C@@H](Cc2ccccc2)C(=O)N[C@@H](CCCN)C(=O)N2CCC[C@@H]2C(=O)N[C@@H](Cc2c[nH]c3ccccc23)C(=O)N[C@@H](Cc2ccc(O)cc2)C(=O)N[C@@H](CC(C)C)C(=O)N[C@H](C(=O)NCC(=O)N[C@@H](Cc2cn(CC[C@H](NC(=O)CCCCCCCCCCCCCCC(=O)O)C(=O)O)nn2)C(N)=O)CSCC(=O)N[C@@H](Cc2cc(F)c(F)c(F)c2)C(=O)N(C)[C@@H](Cc2ccccc2)C(=O)N1C` [Example 14073], the IC50 was 10 to 99 nM.

In the case of `CCCCCCCCCCCCCC(=O)NCCCC[C@H](NC(=O)[C@H](CC(=O)O)NC(=O)[C@H](CC(=O)O)NC(=O)CNC(=O)[C@@H]1CSCC(=O)N[C@@H](Cc2ccc(O)cc2)C(=O)N(C)[C@@H](C)C(=O)N[C@@H](CC(=O)O)C(=O)N2CCC[C@H]2C(=O)N[C@@H](Cc2cnc[nH]2)C(=O)N[C@@H](CC(C)C)C(=O)N2C[C@H](O)C[C@H]2C(=O)N[C@@H](Cc2c[nH]c3ccccc23)C(=O)N[C@@H](CO)C(=O)N[C@@H](Cc2c[nH]c3ccccc23)C(=O)N(C)[C@@H](CCCC)C(=O)N(C)[C@@H](CCCC)C(=O)N[C@@H](CCCNC(=N)N)C(=O)N1)C(N)=O` [Example 11014] ({CH2CO}-Y[NMeA]DPHL[Hyp]WSW[NMeNle][NMeNle]RCGDDK(Myristoyl)-NH2; thioether N-14), the IC50 is reported as 100 to 1600 nM.
